According to ChEMBL document CHEMBL5104103 (J Med Chem, 2022):

What was measured:
[1] = biological target: T1, Tyrosine-protein kinase ITK/TSK (Homo sapiens) (UniProt Q08881); assay: Displacement of competitive tracer from ITK (unknown origin) assessed as target occupancy at […] preincubated for 15 mins measured for 1 hr relative to control; details: dose 1.5 µM
T1 sequence (whole entry): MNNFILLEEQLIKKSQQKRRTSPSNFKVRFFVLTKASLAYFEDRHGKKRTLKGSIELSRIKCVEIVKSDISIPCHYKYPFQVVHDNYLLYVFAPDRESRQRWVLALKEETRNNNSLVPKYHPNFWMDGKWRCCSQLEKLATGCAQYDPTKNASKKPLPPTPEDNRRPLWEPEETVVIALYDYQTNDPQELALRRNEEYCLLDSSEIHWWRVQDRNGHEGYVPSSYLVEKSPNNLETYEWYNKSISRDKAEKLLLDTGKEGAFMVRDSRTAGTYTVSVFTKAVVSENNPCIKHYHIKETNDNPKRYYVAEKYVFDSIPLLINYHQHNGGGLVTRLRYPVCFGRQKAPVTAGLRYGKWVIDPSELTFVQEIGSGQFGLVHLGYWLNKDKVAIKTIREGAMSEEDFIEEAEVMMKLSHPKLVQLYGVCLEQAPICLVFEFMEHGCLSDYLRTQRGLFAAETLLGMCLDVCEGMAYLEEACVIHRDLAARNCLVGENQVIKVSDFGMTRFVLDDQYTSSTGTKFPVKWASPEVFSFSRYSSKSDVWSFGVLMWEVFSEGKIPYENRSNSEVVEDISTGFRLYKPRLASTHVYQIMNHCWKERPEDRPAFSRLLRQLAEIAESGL

[2] = Drug concentration in plasma of collagen-induced arthritis Lewis rat model 10 mg/kg/day, po measured after 6 hrs post-collection of plasma; assay type: ADME, organism-based
[3] = biological target: D(2) dopamine receptor (Homo sapiens) (UniProt P14416); assay: Displacement of [3H]methyl-spiperone from recombinant human dopamine receptor D2S at 10 uM incubated for 60 mins by radiometric scintillation assay relative to control
Chain of D(2) dopamine receptor (Homo sapiens) (P14416 whole entry): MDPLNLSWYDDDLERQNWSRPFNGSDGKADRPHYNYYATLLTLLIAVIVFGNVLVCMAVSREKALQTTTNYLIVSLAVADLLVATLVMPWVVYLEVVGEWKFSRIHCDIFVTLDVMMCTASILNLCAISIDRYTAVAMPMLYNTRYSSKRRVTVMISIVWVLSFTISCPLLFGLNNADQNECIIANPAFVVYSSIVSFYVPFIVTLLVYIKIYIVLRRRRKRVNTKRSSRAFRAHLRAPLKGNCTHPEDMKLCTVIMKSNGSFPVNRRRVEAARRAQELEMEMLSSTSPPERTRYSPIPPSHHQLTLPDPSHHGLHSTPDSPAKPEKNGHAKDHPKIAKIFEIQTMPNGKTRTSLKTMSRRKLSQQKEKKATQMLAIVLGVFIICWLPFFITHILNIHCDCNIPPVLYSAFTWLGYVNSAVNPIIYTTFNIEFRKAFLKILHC

[4] = biological target: T2, Tyrosine-protein kinase Tec (Homo sapiens) (UniProt P42680); assay: Displacement of competitive tracer from TEC (unknown origin) assessed as target occupancy at […] preincubated for 15 mins measured for 1 hr relative to control; details: dose 1.5 µM
T2 sequence (whole entry): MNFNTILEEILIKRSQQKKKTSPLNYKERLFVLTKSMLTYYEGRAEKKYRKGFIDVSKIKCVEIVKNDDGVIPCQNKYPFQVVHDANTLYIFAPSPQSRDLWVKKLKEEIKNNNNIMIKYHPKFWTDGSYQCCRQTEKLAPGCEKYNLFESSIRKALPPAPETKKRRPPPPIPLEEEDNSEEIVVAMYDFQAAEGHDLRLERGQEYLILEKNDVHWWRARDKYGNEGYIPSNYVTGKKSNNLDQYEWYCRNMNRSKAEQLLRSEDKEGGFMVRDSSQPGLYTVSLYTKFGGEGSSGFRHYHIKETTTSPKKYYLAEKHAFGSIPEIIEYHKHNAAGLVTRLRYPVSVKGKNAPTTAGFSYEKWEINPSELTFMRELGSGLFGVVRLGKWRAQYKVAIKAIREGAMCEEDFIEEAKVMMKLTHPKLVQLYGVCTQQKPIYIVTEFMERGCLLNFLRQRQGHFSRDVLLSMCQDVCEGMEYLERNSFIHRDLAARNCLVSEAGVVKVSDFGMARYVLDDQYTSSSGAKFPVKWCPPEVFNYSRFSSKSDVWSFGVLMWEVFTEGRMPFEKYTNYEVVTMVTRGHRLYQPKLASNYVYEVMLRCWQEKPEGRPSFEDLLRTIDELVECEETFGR

[5] = biological target: T1, Tyrosine-protein kinase ITK/TSK (Homo sapiens); assay: Displacement of competitive tracer from ITK (unknown origin) assessed as target occupancy at […] preincubated for 15 mins measured for 6 hrs relative to control; details: dose 1.5 µM
[6] = biological target: T3, Tyrosine-protein kinase TXK (Homo sapiens) (UniProt P42681); assay: Displacement of competitive tracer from RLK (unknown origin) assessed as target occupancy at […] preincubated for 15 mins measured for 1 hr relative to control; details: dose 1.5 µM
T3 sequence (whole entry): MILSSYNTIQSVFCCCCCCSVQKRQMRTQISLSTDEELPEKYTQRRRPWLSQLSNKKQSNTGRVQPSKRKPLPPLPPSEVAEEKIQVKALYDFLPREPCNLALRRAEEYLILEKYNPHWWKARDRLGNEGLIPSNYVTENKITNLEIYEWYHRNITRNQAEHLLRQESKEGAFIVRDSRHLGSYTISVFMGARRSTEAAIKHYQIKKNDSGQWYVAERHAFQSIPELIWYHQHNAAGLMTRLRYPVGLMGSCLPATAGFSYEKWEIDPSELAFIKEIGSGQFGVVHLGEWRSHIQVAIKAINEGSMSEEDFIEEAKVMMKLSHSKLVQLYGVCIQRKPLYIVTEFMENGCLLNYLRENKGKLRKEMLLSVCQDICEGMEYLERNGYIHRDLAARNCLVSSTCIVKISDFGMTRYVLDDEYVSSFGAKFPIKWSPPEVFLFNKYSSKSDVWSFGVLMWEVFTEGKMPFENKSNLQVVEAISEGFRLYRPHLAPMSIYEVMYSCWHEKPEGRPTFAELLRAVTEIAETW

[7] = Toxicity in male Beagle dog assessed as drug tolerance up to 400 mg/kg/day qd for 12 weeks; assay type: organism-based, Canis lupus familiaris; details: in vivo, 2016 h
[8] = Drug concentration in plasma of collagen-induced arthritis Lewis rat model 10 mg/kg/day, po measured after 12 hrs post-collection of plasma; assay type: ADME, organism-based
[9] = biological target: T1, Tyrosine-protein kinase ITK/TSK (Homo sapiens); assay: Displacement of competitive tracer from ITK (unknown origin) assessed as target occupancy at […] preincubated for 15 mins measured for 24 hrs relative to control; details: dose 1.5 µM
[10] = biological target: T2, Tyrosine-protein kinase Tec (Homo sapiens); assay: Displacement of competitive tracer from TEC (unknown origin) assessed as target occupancy at […] preincubated for 15 mins measured for 24 hrs relative to control; details: dose 1.5 µM
[11] = Inhibition of NFAT activation in anti-CD3/anti-CD28-stimulated human Jurkat T cells; assay type: cell-based
[12] = biological target: Adenosine receptor A3 (Homo sapiens) (UniProt P0DMS8); assay: Displacement of [125I]AB-MECA from recombinant human Adenosine receptor A3 at 10 uM incubated for 120 mins by radiometric scintillation assay relative to control
Chain of Adenosine receptor A3 (Homo sapiens) (P0DMS8 whole entry): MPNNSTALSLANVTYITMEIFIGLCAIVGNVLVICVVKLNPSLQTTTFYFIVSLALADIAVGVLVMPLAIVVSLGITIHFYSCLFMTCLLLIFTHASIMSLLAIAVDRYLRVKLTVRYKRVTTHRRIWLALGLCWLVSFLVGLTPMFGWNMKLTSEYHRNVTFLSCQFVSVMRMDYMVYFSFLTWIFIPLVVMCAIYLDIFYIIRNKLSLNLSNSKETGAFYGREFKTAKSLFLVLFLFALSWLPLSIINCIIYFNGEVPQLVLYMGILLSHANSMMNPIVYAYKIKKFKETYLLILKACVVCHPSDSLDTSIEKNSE

[13] = Inhibition of IL-2 production in TCR-stimulated T-cells in human whole blood; assay type: functional, tissue-based; details: T-cell
[14] = biological target: T3, Tyrosine-protein kinase TXK (Homo sapiens); assay: Displacement of competitive tracer from RLK (unknown origin) assessed as target occupancy at […] preincubated for 15 mins measured for 6 hrs relative to control; details: dose 1.5 µM
Rattus norvegicus = assay: Antiarthritic activity in collagen-induced arthritis Lewis rat model assessed as inhibition of ankle diameter administered orally daily for 10 days; assay type: functional, organism-based; details: dose 3-30 mg/kg/day, route po, time 10.0 day, DDE = dose-dependent effect
[15] = biological target: Tyrosine-protein kinase Blk (Homo sapiens, UniProt P51451); assay: Displacement of competitive tracer from BLK (unknown origin) assessed as target occupancy at […] preincubated for 15 mins measured for 24 hrs relative to control; details: dose 1.5 µM
Chain of Tyrosine-protein kinase Blk (P51451 2-505 limits assumed): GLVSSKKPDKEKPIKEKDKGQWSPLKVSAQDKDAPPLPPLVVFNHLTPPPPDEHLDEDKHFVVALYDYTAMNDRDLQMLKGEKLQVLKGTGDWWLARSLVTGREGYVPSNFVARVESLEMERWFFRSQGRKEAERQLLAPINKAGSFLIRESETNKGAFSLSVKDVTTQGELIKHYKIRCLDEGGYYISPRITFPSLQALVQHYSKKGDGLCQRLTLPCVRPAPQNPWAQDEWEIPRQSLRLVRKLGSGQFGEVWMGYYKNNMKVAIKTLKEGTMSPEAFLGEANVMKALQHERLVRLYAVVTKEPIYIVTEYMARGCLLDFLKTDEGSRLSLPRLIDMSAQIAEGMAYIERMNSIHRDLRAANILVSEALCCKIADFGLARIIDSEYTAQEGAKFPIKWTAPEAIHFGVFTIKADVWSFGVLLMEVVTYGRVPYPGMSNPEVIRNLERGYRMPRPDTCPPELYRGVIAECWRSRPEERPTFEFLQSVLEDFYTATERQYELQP

[16] = biological target: T2, Tyrosine-protein kinase Tec (Homo sapiens); assay: Displacement of competitive tracer from TEC (unknown origin) assessed as target occupancy at […] preincubated for 15 mins measured for 6 hrs relative to control; details: dose 1.5 µM
[17] = Toxicity in female Beagle dog assessed as NOAEL; parameters: species or system Canis lupus familiaris; details: in vivo
[18] = Clearance in rat liver S9 fraction assessed as measuring per mg protein; assay type: ADME, subcellular; details: read-out: CLH

SMILES: CC(C)(C)/C=C(\C#N)C(=O)N1CCC[C@@H](n2nc(-c3ccc(Oc4ccccc4)cc3F)c3c(N)ncnc32)C1 [ATUZABRUTINIB]
- Activity [1]: 82%
- concentration at 6 h [2]: 40.2 ng/mL
- inhibition [3]: > 50%
- Activity [4]: 87%
- Activity [5]: 28%
- Activity [6]: 88%
- Activity [7]: Non-Toxic
- concentration at 12 h [8]: 10 ng/mL
- Activity [9]: -7%
- Activity [10]: 76%
- IC50 [11]: 2100 nM
- inhibition [12]: > 50%
- IC50 [13]: > 5 µM
- Activity [14]: 86%
- Activity (Rattus norvegicus): Dde
- Activity [15]: 1%
- Activity [16]: 80%
- NOAEL [17]: 120 mg/kg
- microsomal CLint [18]: 54 µL/min/mg
